Measurements as given in ChEMBL document CHEMBL3526086, “Identification of the oxidative and conjugative enzymes involved in the biotransformation of brivanib” (Drug Metab Dispos, 2012).
Values belong to the molecule of their own block, whether it stands above or below them.

How the values were obtained:
[1] = system: Liver cytosol; test: Drug metabolism in human liver cytosol assessed as (R)-4-fluoro-5-(5-methyl-6-(2-sulfopropoxy)pyrrolo[1,2-f][1,2,4]triazin-4-yloxy)-1H-indole-2-carboxylic acid formation at 2 uM for 60 mins by LC/MS analysis in presence of PAPS; format: ADME
[2] = system: Liver cytosol; test: Drug metabolism in human liver cytosol assessed as sulfate conjugate formation at 2 uM for 60 mins in absence of PAPS by LC/MS analysis; format: ADME, tissue-based; details: 1 h
[3] = system: Liver microsome; test: Drug metabolism in human liver microsomes assessed as (R)-1-(4-(4-fluoro-2-(hydroxymethyl)-1H-indol-5-yloxy)-5-methylpyrrolo[1,2-f][1,2,4]triazin-6-yloxy)propane-2-sulfonic acid at 2 uM for 60 mins by LC/MS analysis in presence of NADPH; format: ADME
[4] = system: Liver microsome; test: Drug metabolism in human liver microsomes assessed as (R)-4-fluoro-5-(5-methyl-6-(2-sulfopropoxy)pyrrolo[1,2-f][1,2,4]triazin-4-yloxy)-1H-indole-2-carboxylic acid at 2 uM for 60 mins by LC/MS analysis in presence of NADPH; format: ADME
[5] = system: Liver microsome; test: Drug metabolism in human liver microsomes assessed as compound oxidation at 2 uM for 60 mins by LC/MS analysis in absence of NADPH; format: ADME; details: 1 h
[6] = molecular target: Cytochrome P450 2D6 (Homo sapiens, UniProt P10635); test: Activity of human CYP2D6 assessed as compound formation treated with 2 and 20 uM brivanib for 20 mins by LC/MS analysis in presence of NADPH; format: ADME
Chain of Cytochrome P450 2D6 (P10635 whole entry): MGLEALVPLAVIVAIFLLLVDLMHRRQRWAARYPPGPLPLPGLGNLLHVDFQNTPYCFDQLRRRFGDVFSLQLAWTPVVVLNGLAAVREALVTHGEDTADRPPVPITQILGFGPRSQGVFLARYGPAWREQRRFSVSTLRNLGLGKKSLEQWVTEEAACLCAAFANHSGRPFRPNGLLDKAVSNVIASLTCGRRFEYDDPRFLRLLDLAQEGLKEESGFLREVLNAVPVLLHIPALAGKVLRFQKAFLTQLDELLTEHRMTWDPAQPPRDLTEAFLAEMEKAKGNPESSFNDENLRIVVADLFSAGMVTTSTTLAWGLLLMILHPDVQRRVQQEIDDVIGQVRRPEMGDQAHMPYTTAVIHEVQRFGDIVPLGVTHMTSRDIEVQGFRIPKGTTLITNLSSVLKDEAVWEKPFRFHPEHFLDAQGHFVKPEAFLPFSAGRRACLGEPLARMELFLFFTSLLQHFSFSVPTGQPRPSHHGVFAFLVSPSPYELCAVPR

[7] = molecular target: Cytochrome P450 3A5 (Homo sapiens, UniProt P20815); test: Activity of human CYP3A5 assessed as compound formation treated with 2 and 20 uM brivanib for 20 mins by LC/MS analysis in presence of NADPH; format: ADME
Chain of Cytochrome P450 3A5 (P20815 whole entry): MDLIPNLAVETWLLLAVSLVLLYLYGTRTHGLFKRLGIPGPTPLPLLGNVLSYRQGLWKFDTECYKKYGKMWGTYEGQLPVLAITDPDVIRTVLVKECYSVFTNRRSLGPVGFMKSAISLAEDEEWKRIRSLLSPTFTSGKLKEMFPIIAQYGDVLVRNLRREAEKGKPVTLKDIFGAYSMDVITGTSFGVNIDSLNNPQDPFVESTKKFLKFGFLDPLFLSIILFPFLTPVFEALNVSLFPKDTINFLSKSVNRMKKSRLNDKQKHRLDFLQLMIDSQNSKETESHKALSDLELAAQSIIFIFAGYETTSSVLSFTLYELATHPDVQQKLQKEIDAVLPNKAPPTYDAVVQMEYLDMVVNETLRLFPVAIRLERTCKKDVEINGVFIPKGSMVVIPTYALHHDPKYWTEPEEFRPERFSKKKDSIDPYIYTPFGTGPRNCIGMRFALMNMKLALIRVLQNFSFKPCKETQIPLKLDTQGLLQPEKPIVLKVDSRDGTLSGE

[8] = molecular target: Cytochrome P450 2C19 (Homo sapiens, UniProt P33261); test: Activity of human CYP2C19 assessed as compound formation treated with 2 and 20 uM brivanib for 20 mins by LC/MS analysis in presence of NADPH; format: ADME
Chain of Cytochrome P450 2C19 (P33261 whole entry): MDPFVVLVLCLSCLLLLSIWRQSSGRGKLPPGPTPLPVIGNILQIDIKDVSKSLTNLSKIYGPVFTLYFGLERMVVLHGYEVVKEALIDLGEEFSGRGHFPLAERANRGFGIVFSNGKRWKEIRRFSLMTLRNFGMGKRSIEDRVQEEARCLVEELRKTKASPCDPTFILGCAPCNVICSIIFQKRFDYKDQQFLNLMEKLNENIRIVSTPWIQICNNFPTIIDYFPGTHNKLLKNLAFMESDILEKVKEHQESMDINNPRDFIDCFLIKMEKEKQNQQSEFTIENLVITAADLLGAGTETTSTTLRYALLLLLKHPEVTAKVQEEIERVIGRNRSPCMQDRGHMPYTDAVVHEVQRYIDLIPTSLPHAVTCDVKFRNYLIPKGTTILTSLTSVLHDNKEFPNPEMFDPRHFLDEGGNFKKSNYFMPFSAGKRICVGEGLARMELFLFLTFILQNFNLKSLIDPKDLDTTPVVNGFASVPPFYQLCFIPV

[9] = molecular target: T1, Cytochrome P450 2C8 (Homo sapiens, UniProt P10632); test: Activity of human CYP2C8 assessed as compound formation treated with 2 and 20 uM brivanib for 20 mins by LC/MS analysis in presence of NADPH; format: ADME
T1 sequence (P10632 whole entry): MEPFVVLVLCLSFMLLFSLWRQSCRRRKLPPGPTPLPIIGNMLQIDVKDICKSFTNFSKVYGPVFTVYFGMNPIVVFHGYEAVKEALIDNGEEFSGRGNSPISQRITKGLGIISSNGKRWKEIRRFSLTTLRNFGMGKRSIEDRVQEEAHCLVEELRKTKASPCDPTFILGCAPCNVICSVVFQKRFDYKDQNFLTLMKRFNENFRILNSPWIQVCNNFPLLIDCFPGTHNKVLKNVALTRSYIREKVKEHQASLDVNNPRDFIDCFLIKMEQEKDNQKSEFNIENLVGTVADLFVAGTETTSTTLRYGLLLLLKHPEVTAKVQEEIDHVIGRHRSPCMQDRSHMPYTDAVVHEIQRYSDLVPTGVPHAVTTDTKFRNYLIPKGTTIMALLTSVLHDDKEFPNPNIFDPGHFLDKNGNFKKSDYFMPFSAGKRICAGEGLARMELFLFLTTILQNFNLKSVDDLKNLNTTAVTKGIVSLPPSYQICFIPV

[10] = molecular target: T2, Cytochrome P450 2A6 (Homo sapiens, UniProt P11509); test: Activity of human CYP2A6 assessed as compound formation treated with 2 and 20 uM brivanib for 20 mins by LC/MS analysis in presence of NADPH; format: ADME
T2 sequence (P11509 whole entry): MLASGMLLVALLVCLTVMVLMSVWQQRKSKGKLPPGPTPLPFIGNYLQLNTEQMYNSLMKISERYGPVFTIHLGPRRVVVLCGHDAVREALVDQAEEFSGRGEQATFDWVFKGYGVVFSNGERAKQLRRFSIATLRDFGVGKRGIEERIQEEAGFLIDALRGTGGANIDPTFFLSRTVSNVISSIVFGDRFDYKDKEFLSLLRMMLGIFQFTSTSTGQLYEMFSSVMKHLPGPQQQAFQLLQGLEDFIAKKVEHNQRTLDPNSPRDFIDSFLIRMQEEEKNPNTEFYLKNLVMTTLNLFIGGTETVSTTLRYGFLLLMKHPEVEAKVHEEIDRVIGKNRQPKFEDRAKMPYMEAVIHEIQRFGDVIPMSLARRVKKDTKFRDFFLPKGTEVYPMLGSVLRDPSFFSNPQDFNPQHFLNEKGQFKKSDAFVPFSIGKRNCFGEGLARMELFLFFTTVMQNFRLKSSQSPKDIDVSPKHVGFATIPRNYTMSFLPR

[11] = molecular target: T3, Cytochrome P450 2B6 (Homo sapiens, UniProt P20813); test: Activity of human CYP2B6 assessed as compound formation treated with 2 and 20 uM brivanib for 20 mins by LC/MS analysis in presence of NADPH; format: ADME
T3 sequence (P20813 whole entry): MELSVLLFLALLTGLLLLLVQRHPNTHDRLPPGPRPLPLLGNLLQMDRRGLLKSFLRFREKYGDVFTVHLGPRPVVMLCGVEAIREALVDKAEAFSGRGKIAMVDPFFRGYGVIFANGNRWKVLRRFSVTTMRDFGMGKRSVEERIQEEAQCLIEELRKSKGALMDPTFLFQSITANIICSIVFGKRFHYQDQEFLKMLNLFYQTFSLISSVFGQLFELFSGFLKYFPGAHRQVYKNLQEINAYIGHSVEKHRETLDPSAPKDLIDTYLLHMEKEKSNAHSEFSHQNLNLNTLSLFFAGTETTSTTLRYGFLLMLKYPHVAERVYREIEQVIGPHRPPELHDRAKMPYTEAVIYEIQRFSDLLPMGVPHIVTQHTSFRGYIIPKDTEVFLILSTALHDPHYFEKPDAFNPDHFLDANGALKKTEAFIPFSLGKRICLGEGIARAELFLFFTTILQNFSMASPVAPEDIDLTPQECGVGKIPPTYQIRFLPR

[12] = molecular target: Cytochrome P450 2C9 (Homo sapiens, UniProt P11712); test: Activity of human CYP2C9 assessed as compound formation treated with 2 and 20 uM brivanib for 20 mins by LC/MS analysis in presence of NADPH; format: ADME
Chain of Cytochrome P450 2C9 (P11712 whole entry): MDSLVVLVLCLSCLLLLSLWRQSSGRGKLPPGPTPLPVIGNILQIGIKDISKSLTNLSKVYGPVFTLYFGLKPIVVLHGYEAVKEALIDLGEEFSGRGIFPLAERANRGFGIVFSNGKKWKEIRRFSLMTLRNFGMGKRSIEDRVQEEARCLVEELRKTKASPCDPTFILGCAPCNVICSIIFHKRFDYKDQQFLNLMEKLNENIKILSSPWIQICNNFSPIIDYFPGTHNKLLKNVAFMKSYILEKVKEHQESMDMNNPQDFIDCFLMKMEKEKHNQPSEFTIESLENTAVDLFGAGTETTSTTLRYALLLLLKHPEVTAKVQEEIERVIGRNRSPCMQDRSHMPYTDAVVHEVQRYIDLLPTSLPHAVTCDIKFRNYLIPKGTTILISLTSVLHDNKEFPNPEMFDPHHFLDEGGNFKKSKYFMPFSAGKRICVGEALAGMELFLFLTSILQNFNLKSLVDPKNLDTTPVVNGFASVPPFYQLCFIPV

[13] = system: Liver microsome; test: Drug level in human liver microsomes treated with 2 and 20 uM brivanib for 30 mins by LC/MS analysis in presence of 2 uM CYP2A6 inhibitor tranylcypromine; format: ADME; details: 0.5 h
[14] = system: Liver microsome; test: Drug level in human liver microsomes treated with 2 and 20 uM brivanib for 30 mins by LC/MS analysis in presence of 50 uM CYP2B6 inhibitor orphenadrine; format: ADME; details: 0.5 h
[15] = system: Liver microsome; test: Drug level in human liver microsomes treated with 2 and 20 uM brivanib for 30 mins by LC/MS analysis in presence of 3 uM CYP2C8 inhibitor montekulast; format: ADME; details: 0.5 h
[16] = molecular target: Cytochrome P450 1A1 (Homo sapiens, UniProt P04798); test: Activity of human CYP1A1 assessed as compound formation treated with 2 and 20 uM brivanib for 20 mins by LC/MS analysis in presence of NADPH; format: ADME
Chain of Cytochrome P450 1A1 (P04798 whole entry): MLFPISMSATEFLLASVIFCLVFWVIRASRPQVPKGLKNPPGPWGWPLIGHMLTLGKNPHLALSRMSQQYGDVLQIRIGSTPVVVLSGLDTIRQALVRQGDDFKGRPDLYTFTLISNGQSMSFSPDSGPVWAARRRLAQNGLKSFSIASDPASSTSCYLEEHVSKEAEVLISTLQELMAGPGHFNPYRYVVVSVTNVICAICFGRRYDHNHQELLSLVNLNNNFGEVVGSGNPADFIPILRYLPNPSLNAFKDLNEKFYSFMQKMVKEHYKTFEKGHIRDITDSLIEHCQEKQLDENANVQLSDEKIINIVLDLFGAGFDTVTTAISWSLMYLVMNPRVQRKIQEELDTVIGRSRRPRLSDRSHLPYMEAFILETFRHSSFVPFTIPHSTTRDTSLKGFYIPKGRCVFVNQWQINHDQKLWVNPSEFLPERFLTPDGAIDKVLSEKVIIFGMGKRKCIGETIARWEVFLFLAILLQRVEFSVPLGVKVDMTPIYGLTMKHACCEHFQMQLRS

[17] = molecular target: T4, Cytochrome P450 1A2 (Homo sapiens, UniProt P05177); test: Activity of human CYP1A2 assessed as compound formation treated with 2 and 20 uM brivanib for 20 mins by LC/MS analysis in presence of NADPH; format: ADME
T4 sequence (P05177 whole entry): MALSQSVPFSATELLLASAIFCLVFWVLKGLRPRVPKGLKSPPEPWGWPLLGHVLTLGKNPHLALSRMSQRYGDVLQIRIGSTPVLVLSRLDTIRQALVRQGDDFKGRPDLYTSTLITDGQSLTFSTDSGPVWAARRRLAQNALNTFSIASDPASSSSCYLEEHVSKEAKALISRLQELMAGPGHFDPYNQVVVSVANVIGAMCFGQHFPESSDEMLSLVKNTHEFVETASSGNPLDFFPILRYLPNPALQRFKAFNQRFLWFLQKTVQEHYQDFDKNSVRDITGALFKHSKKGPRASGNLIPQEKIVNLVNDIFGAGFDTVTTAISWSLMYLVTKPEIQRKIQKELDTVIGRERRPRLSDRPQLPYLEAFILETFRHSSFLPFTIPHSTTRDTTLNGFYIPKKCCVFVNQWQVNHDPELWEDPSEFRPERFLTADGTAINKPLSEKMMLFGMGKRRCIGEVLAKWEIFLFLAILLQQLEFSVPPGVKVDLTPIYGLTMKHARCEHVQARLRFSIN

[18] = molecular target: Cytochrome P450 1B1 (Homo sapiens, UniProt Q16678); test: Activity of human CYP1B1 assessed as compound formation treated with 2 and 20 uM brivanib for 20 mins by LC/MS analysis in presence of NADPH; format: ADME
Chain of Cytochrome P450 1B1 (Q16678 whole entry): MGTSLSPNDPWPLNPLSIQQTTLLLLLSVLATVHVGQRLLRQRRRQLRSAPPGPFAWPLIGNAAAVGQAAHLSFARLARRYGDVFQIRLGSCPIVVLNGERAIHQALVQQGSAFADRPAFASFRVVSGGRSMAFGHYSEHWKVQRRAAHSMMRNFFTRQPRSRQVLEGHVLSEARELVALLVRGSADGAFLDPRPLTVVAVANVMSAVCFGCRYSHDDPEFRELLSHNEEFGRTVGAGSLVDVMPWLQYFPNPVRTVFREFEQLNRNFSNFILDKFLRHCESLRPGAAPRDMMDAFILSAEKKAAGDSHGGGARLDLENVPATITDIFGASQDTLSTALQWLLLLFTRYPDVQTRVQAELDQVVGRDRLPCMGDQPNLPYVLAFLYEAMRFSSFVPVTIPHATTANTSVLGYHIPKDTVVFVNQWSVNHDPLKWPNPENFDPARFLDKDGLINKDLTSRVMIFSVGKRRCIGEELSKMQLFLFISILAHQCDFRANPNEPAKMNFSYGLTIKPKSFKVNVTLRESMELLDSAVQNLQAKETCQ

[19] = molecular target: Cytochrome P450 3A4 (Homo sapiens, UniProt P08684); test: Activity of human CYP3A4 assessed as compound formation treated with 2 and 20 uM brivanib for 20 mins by LC/MS analysis in presence of NADPH; format: ADME
Chain of Cytochrome P450 3A4 (P08684 whole entry): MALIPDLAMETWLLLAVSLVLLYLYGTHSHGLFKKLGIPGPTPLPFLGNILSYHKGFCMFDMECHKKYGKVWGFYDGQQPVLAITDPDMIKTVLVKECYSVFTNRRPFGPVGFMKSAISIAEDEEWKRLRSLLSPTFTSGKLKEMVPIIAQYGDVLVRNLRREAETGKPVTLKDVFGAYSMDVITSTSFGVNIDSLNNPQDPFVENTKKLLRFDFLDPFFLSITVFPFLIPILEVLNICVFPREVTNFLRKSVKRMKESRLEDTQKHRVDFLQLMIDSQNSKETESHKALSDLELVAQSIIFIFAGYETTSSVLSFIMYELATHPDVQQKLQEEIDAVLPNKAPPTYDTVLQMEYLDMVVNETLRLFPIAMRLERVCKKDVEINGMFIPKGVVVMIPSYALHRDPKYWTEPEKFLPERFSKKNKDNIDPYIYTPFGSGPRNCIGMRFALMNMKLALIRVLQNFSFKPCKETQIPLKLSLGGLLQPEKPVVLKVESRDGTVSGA

[20] = system: Liver microsome; test: Drug level in human liver microsomes treated with 2 and 20 uM brivanib for 30 mins by LC/MS analysis in presence of 10 uM CYP2C9 inhibitor sulfaphenazole; format: ADME; details: 0.5 h
[21] = system: Liver microsome; test: Drug level in human liver microsomes treated with 2 and 20 uM brivanib for 30 mins by LC/MS analysis in presence of 1 uM CYP2D6 inhibitor quinidine; format: ADME; details: 0.5 h
[22] = system: Liver microsome; test: Drug level in human liver microsomes treated with 2 and 20 uM brivanib for 30 mins by LC/MS analysis in presence of 50 uM CYP2E1 inhibitor diethyldithiocarbamate; format: ADME; details: 0.5 h
[23] = system: Liver microsome; test: Drug level in human liver microsomes assessed as compound formation treated with 2 uM [14C]brivanib alaninate for 60 mins by LC/MS analysis in presence of NADPH; format: ADME; details: 1 h
[24] = substrate: Cc1cc2c(F)c(Oc3ncnn4cc(OC[C@@H](C)O)c(C)c34)ccc2[nH]1; test: Activity of human CYP1A2 assessed as enzyme-mediated (R)-1-(4-(4-fluoro-2-(hydroxymethyl)-1H-indol-5-yloxy)-5-methylpyrrolo[1,2-f][1,2,4]triazin-6-yloxy)propan-2-ol formation in presence of NADPH; format: ADME

Drug metabolism [1]: metabolite_detected
Drug metabolism [2]: metabolite_not_detected
Molecule: Cc1c(OC[C@@H](C)O)cn2n[14cH]nc(Oc3ccc4[nH]c(C(=O)O)cc4c3F)c12

Drug metabolism [3]: metabolite_detected
Drug metabolism [4]: metabolite_detected
Drug metabolism [5]: metabolite_not_detected
Molecule: Cc1cc2c(F)c(Oc3n[14cH]nn4cc(OC[C@@H](C)OS(=O)(=O)O)c(C)c34)ccc2[nH]1

Drug metabolism [6]: metabolite_detected
Drug metabolism [7]: metabolite_detected
Drug metabolism [8]: metabolite_detected
Drug metabolism [9]: metabolite_detected
Drug metabolism [10]: metabolite_detected
Drug metabolism [11]: metabolite_detected
Drug metabolism [12]: metabolite_detected
Drug metabolism [13]: metabolite_detected
Drug metabolism [14]: metabolite_detected
Drug metabolism [15]: metabolite_detected
Drug metabolism [16]: metabolite_detected
Drug metabolism [17]: metabolite_detected
Drug metabolism [18]: metabolite_detected
Drug metabolism [19]: metabolite_detected
Drug metabolism [20]: metabolite_detected
Drug metabolism [21]: metabolite_detected
Drug metabolism [22]: metabolite_detected
Drug metabolism [23]: metabolite_detected
Molecule: Cc1c(OC[C@@H](C)O)cn2ncnc(Oc3ccc4[nH]c(CO)cc4c3F)c12

B1: Cytochrome P450 1A2 (Homo sapiens) (protein)
chain: MALSQSVPFSATELLLASAIFCLVFWVLKGLRPRVPKGLKSPPEPWGWPLLGHVLTLGKNPHLALSRMSQRYGDVLQIRIGSTPVLVLSRLDTIRQALVRQGDDFKGRPDLYTSTLITDGQSLTFSTDSGPVWAARRRLAQNALNTFSIASDPASSSSCYLEEHVSKEAKALISRLQELMAGPGHFDPYNQVVVSVANVIGAMCFGQHFPESSDEMLSLVKNTHEFVETASSGNPLDFFPILRYLPNPALQRFKAFNQRFLWFLQKTVQEHYQDFDKNSVRDITGALFKHSKKGPRASGNLIPQEKIVNLVNDIFGAGFDTVTTAISWSLMYLVTKPEIQRKIQKELDTVIGRERRPRLSDRPQLPYLEAFILETFRHSSFLPFTIPHSTTRDTTLNGFYIPKKCCVFVNQWQVNHDPELWEDPSEFRPERFLTADGTAINKPLSEKMMLFGMGKRRCIGEVLAKWEIFLFLAILLQQLEFSVPPGVKVDLTPIYGLTMKHARCEHVQARLRFSIN
Km [24]: 45 µM
Vmax [24]: 1.39e-06 µmol/min
